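Following 48 hours of exposure in 96-well plates, responses at five concentrations were used to interpolate endpoints linearly. TGI: total growth inhibition.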
What was measured:
Experiment in all cases: inhibition of tumour cell growth, NCI panel, 48 h
NCI-H460 lung = tested on: NCI-H460 lung
DLD-1 colon = tested on: DLD-1 colon
SK-MEL-28 melanoma = tested on: SK-MEL-28 melanoma
SN12C renal = tested on: SN12C renal
K-562 leukemia = tested on: K-562 leukemia
HOP-62 NSCLC = tested on: HOP-62 NSCLC
CCRF-CEM leukemia = tested on: CCRF-CEM leukemia
HCT-116 colon = tested on: HCT-116 colon
LOX IMVI melanoma = tested on: LOX IMVI melanoma
DMS 273 small cell lung = tested on: DMS 273 small cell lung
NCI-H23 lung = tested on: NCI-H23 lung
SNB-78 CNS = tested on: SNB-78 CNS
M14 melanoma = tested on: M14 melanoma
NCI-H522 lung = tested on: NCI-H522 lung
RXF 393 renal = tested on: RXF 393 renal
SNB-75 CNS = tested on: SNB-75 CNS
RPMI-8226 leukemia = tested on: RPMI-8226 leukemia
LXFL 529 NSCLC = tested on: LXFL 529 NSCLC
MOLT-4 leukemia = tested on: MOLT-4 leukemia
786-0 renal = tested on: 786-0 renal
KM20L2 colon = tested on: KM20L2 colon
HL-60(TB) leukemia = tested on: HL-60(TB) leukemia
U251 CNS = tested on: U251 CNS
SF-539 CNS = tested on: SF-539 CNS
NCI-H226 lung = tested on: NCI-H226 lung
HCC-2998 colon = tested on: HCC-2998 colon
SNB-19 CNS = tested on: SNB-19 CNS
HOP-18 NSCLC = tested on: HOP-18 NSCLC
XF 498 CNS = tested on: XF 498 CNS
SR leukemia = tested on: SR leukemia
SF-295 CNS = tested on: SF-295 CNS
CAKI-1 renal = tested on: CAKI-1 renal
UACC-257 melanoma = tested on: UACC-257 melanoma
HOP-92 NSCLC = tested on: HOP-92 NSCLC
MALME-3M melanoma = tested on: MALME-3M melanoma
HT29 colon = tested on: HT29 colon
SK-MEL-5 melanoma = tested on: SK-MEL-5 melanoma
DMS 114 small cell lung = tested on: DMS 114 small cell lung
OVCAR-8 ovarian = tested on: OVCAR-8 ovarian
SF-268 CNS = tested on: SF-268 CNS
OVCAR-4 ovarian = tested on: OVCAR-4 ovarian
OVCAR-3 ovarian = tested on: OVCAR-3 ovarian
EKVX NSCLC = tested on: EKVX NSCLC
SK-OV-3 ovarian = tested on: SK-OV-3 ovarian
ACHN renal = tested on: ACHN renal
HCT-15 colon = tested on: HCT-15 colon
UO-31 renal = tested on: UO-31 renal
A498 renal = tested on: A498 renal
A549 NSCLC = tested on: A549 NSCLC
IGROV1 ovarian = tested on: IGROV1 ovarian
COLO 205 colon = tested on: COLO 205 colon
M19-MEL melanoma = tested on: M19-MEL melanoma
UACC-62 melanoma = tested on: UACC-62 melanoma
SW-620 colon = tested on: SW-620 colon

Measured: TGI

O=c1oc(-c2ccccc2)cn1-c1ccccc1
> 100 µM: NCI-H460 lung | DLD-1 colon | SK-MEL-28 melanoma | SN12C renal | K-562 leukemia | HOP-62 NSCLC | CCRF-CEM leukemia | HCT-116 colon | LOX IMVI melanoma | DMS 273 small cell lung | NCI-H23 lung | SNB-78 CNS | M14 melanoma | NCI-H522 lung | RXF 393 renal | SNB-75 CNS | RPMI-8226 leukemia | LXFL 529 NSCLC | MOLT-4 leukemia | 786-0 renal | KM20L2 colon | HL-60(TB) leukemia | U251 CNS | SF-539 CNS | NCI-H226 lung | HCC-2998 colon | SNB-19 CNS | HOP-18 NSCLC | XF 498 CNS

O=C(Nc1cccc(O)c1)C(=O)C1C(=O)NC(=S)NC1=O
> 100 µM: DLD-1 colon | SK-MEL-28 melanoma | SR leukemia | SN12C renal | K-562 leukemia | SF-295 CNS | CCRF-CEM leukemia | HCT-116 colon | CAKI-1 renal | LOX IMVI melanoma | DMS 273 small cell lung | UACC-257 melanoma | HOP-92 NSCLC | MALME-3M melanoma | NCI-H23 lung | SNB-78 CNS | M14 melanoma | NCI-H522 lung | HT29 colon | SK-MEL-5 melanoma | RXF 393 renal | SNB-75 CNS | DMS 114 small cell lung | RPMI-8226 leukemia | LXFL 529 NSCLC | OVCAR-8 ovarian | MOLT-4 leukemia | SF-268 CNS | 786-0 renal | OVCAR-4 ovarian | OVCAR-3 ovarian | KM20L2 colon | HL-60(TB) leukemia | U251 CNS | EKVX NSCLC | SF-539 CNS | NCI-H226 lung | SK-OV-3 ovarian | HCC-2998 colon | ACHN renal | HCT-15 colon | UO-31 renal | A498 renal | A549 NSCLC | SNB-19 CNS | IGROV1 ovarian | HOP-18 NSCLC | COLO 205 colon | M19-MEL melanoma | XF 498 CNS | UACC-62 melanoma | SW-620 colon

Source: PubChem BioAssay (NCI)
